The structures appear in SMILES notation. Where two headings read alike, the source gives them in different places.

For test [1], the target named is T1, HDMX (Homo sapiens, UniProt O15151).
T1 sequence (O15151 1-490): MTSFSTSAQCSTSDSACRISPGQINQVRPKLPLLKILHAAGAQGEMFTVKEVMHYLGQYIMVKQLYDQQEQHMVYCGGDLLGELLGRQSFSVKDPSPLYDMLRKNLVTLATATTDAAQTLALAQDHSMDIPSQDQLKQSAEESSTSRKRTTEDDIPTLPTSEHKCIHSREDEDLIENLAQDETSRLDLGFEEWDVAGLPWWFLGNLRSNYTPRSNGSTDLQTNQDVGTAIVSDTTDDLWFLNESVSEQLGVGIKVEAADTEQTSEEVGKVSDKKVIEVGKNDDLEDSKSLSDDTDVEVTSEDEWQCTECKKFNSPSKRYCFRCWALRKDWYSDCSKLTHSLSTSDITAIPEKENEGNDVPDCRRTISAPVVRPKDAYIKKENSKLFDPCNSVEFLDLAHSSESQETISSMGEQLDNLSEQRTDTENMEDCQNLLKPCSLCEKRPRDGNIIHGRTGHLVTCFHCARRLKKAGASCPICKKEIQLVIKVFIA
The test is described as follows: Surface plasmon resonance binding to immobilized recombinant HDMX. The settings on record: doses up to 12.5 μM. In general terms: SPR reads the build-up and loss of mass on a sensor chip optically.

For test [2], the target named is T1, HDMX. In words: Spectral (absorbance) studies after size exclusion chromatography with HDMX. It is filed as binding. To be noted: absorbance pattern after removal of free compound.
For the next test, the target named is T2, GST-HDMX (Homo sapiens, UniProt O15151).
T2 sequence (O15151 1-490): T1 sequence (O15151 1-490)
To be noted: immunoprecipitation / streptavidin pull-down.

The next test deals with HDM2/p53 (Homo sapiens, UniProt Q00987). The test is described as follows: ELISA of recombinant HDM2/p53 interaction. The class given is biochemical. In general terms: An ELISA detects its analyte on a solid surface through an enzyme-linked reagent.
Chain of HDM2/p53 (Q00987 whole entry): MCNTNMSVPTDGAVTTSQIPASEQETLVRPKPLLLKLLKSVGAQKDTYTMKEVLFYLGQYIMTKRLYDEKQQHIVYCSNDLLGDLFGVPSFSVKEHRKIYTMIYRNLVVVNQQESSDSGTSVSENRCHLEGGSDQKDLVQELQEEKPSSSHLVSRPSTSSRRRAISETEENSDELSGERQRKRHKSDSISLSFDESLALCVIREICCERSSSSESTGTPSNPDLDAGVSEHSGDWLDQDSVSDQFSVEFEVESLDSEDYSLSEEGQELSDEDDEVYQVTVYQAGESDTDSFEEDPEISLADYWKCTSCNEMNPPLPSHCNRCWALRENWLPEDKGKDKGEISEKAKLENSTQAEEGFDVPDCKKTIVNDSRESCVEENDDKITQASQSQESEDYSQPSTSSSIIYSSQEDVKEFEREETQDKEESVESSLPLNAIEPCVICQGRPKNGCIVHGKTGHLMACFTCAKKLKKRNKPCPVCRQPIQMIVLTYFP
The test system of the next test is primary human AML cells. The test is described as follows: Survival of NSG mice injected with primary human AML cells. The class given is in vivo.
The subject of test [3] is HCT116 p53-wild type cells. The test is described as follows: Annexin-V staining for apoptosis, HCT116 p53-wild type cells. The class given is cell-based. To be noted: combination of CTX1 (3 μM) and nutlin-3 (5 μM), 72 hr.
The test system of another test is IMR90 cells. The test is described as follows: Cell death (trypan blue) in IMR90 fibroblast model with HDMX, HDM2 or shp53. It is filed as cell-based. The settings on record: 72 hr.
The subject of test [4] is HCT116 p53-wild-type cells. In words: Cell cycle analysis by PI staining, HCT116 p53-wild-type cells. To be noted: after 24 hr of treatment with CTX1 (2 μM); decrease from 20%. It is filed as cell-based.
Test [5] concerns HCT116 p53-null cells. In words: Annexin-V staining for apoptosis, HCT116 p53-null cells. It is filed as cell-based. To be noted: combination of CTX1 (3 μM) and nutlin-3 (5 μM), 72 hr.
For the next test, the system named is MCF7 cells. To be noted: CTX1 3 μM.
The subject of the next test is GST-FXR. The class given is binding. To be noted: immunoprecipitation / streptavidin pull-down.
For test [6], the system named is HCT116 p53-null cells. In words: Cell cycle analysis by PI staining, HCT116 p53-null cells. It is filed as cell-based. To be noted: after 24 hr of treatment with CTX1 (2 μM); reduction from 25%.
The next test has as its system OCI cell line. In words: IC50 / cell killing activity on OCI cell line. The class given is cell-based.
Another test addresses T3, HDMX/p53 (Homo sapiens, UniProt O15151).
T3 sequence (O15151 1-490): T1 sequence (O15151 1-490)
In words: ELISA of recombinant HDMX/p53 interaction. It is filed as biochemical.

A further test deals with T4, P53-HDMX (Homo sapiens, UniProt O15151).
T4 sequence (O15151 1-490): T1 sequence (O15151 1-490)
In words: Co-immunoprecipitation of P53 and HDMX. The settings on record: compared to DMSO and Nutlin. The class given is biochemical.

Test [7] deals with OCI-AML3 (OCI) cells overexpressing HDMX. In words: Cell killing of OCI cells overexpressing HDMX versus parental cells. The class given is cell-based. To be noted: 72 hr trypan blue.

In the case of `Nc1c2ccccc2nc2ccccc12` [9-AA, 9-aminoacridine], the “binding to HDMX using SPR” value on HDMX [1] was “did not demonstrate any binding”. Further, on HDMX [2], the “binding to HDMX by spectral studies” value is given as “not observed”. Consider `O=C(O)CCCC[C@@H]1SC[C@@H]2NC(=O)N[C@@H]21` [Biotin], for which the “direct interaction with GST-HDMX” value on GST-HDMX was “not to bind with HDMX”. Regarding `N#Cc1c2ccc(N)cc2nc2cc(N)ccc12` [CTX1], the “disruption of HDM2/p53 interaction” value on HDM2/p53 is on record as “not HDM2/p53”. In the test with primary human AML cells (CTX1 (30 mg/kg i.p.) in combination with nutlin-3 (200 mg/kg p.o.)), the survival time entry is given as “significantly increased survival time”. Besides, in the test with primary human AML cells (single agent, 30 mg/kg i.p.), the survival of mice entry is on record as “significantly enhanced the survival”. For the same compound, the induction of apoptosis result is given as “synergistic induction of apoptosis” in test [3] and “not p53-null cells” with HCT116 p53-null cells [5]. Moreover, the cell death result with IMR90 cells (HDMX-expressing cells (Vector or HDMX), 1, 2.5 and 5 μM) is on record as “induced significant p53-dependent cell death”; in the test on IMR90 cells (cells with HDM2 overexpression or p53 knocked down by shRNA) it was “not cells in which p53 is inactivated by HDM2 overexpression”. The S phase in test [4] is 4%; in the test on HCT116 p53-null cells [6], 15%. Also, the p53 induction result with MCF7 cells was “induces p53 rapidly”. Besides, in the test with GST-FXR, the “direct interaction with GST-FXR” value is “not unrelated proteins such as GST-FXR”. In the test with OCI cell line, `O=[N+]([O-])c1ccc2c(Cl)c3ccc([N+](=O)[O-])cc3nc2c1` [INVA3Z-1-1] returned an IC50 of 13.5 µM.

As for `Nc1ccc(Nc2c3ccccc3nc3ccccc23)cc1` [INVA3Z-5-2], in the test with OCI cell line (OCI cell line, read-out: IC 50), the IC50 worked out at 4.7 µM. Regarding `N#Cc1c2ccc([N+](=O)[O-])cc2nc2cc([N+](=O)[O-])ccc12` [INVA3Z-6-1], in the test on OCI cell line, the IC50 was 14.1 µM. As to `N#Cc1c2ccccc2nc2ccccc12` [INVA3Z-6-3], in the test on OCI cell line (OCI cell line, read-out: IC 50), the IC50 was determined as 13.4 µM. Consider `O=S(=O)(CCCOCc1ccccc1)Nc1ccc(Nc2c3ccccc3nc3ccccc23)cc1` [INVA3Z-10-1], for which the IC50 with OCI cell line (OCI cell line, read-out: IC 50) was determined as 9.8 µM. Still for that read-out and setting: for `[N-]=[N+]=NCCCS(=O)(=O)Nc1ccc(Nc2c3ccccc3nc3ccccc23)cc1` [INVA3Z-13-1] the value was 9.9 µM; for `O=C(CCl)Nc1c2ccccc2nc2ccccc12` [INVA3Z-17-2], 13.6 µM. On the same count and under the same terms, the same measure for `OCCNc1ccc(Nc2c3ccccc3nc3ccccc23)cc1` [INVA3Z-19-1]: 5.8 µM; for `O=[N+]([O-])c1ccc2c(Cl)c3ccccc3nc2c1` [INVA3Z-28-1]: 7.8 µM.

In the test on OCI cell line, `ClCCN(CCCl)c1c2ccccc2nc2ccccc12` [INVA3Z-29-1] displayed an IC50 of over 8 µM. For the compound `N#Cc1ccc(Nc2c3ccccc3nc3ccccc23)cc1` [INVA3Z-29-2], the IC50 in the test on OCI cell line (OCI cell line, read-out: IC 50) is over 8 µM. As to `O=C(CCCCC1SCC2NC(=O)NC21)Nc1ccc(Nc2c3ccccc3nc3ccccc23)cc1` (centres unmarked) [INVA3Z-31-1], in the test with OCI cell line (read-out: IC 50), the IC50 was 11.9 µM.

For the compound `Nc1ccc(Nc2c3ccccc3nc3cc([N+](=O)[O-])ccc23)cc1` [INVA3Z-32-1], in the test with OCI cell line (OCI cell line, read-out: IC 50), the IC50 was determined as 4.8 µM. Still for that read-out and setting: for `Nc1ccc(Nc2c3ccccc3nc3cc(N)ccc23)cc1` [INVA3Z-32-2] the value was 4.7 µM; for `CC(=O)Nc1ccc(Nc2c3ccccc3nc3ccccc23)cc1` [INVA3Z-36-1], 4.9 µM; for `Nc1cccc(Nc2c3ccccc3nc3ccccc23)c1` [INVA3Z-38-1], 11.8 µM. The same measure, in the same setting: for `CC(=O)Nc1cccc(Nc2c3ccccc3nc3ccccc23)c1` [INVA3Z-39-1] the value was 12.1 µM. Same read-out and setting: the same measure for `CC(=O)Nc1ccc2c(Cl)c3ccccc3nc2c1` [INVA3Z-40-1]: 13.2 µM; for `CC(=O)Nc1ccc2c(Nc3ccc(N)cc3)c3ccccc3nc2c1` [INVA3Z-40-2]: 13.9 µM; for `[O-][n+]1c2ccccc2c(Cl)c2ccccc21` [INVA3Z-41-1]: over 15 µM.

For `Nc1ccc(Nc2c3ccccc3[n+]([O-])c3ccccc23)cc1` [INVA3Z-41-2], the IC50 with OCI cell line (OCI cell line, read-out: IC 50) stood at 14.3 µM. As for `Nc1ccc(Nc2c3ccc([N+](=O)[O-])cc3nc3cc([N+](=O)[O-])ccc23)cc1` [INVA3Z-42-1], in the test with OCI cell line (read-out: IC 50), the IC50 was determined as 0.13 µM. As for `Nc1ccc2cc3ccc(N)c(I)c3nc2c1` [INVA3Z-46-2], the IC50 in the test on OCI cell line (OCI cell line, read-out: IC 50) came out at 7.9 µM.

Take `O=C(CCCCC1SCC2NC(=O)NC21)Nc1ccc(Nc2c3ccc([N+](=O)[O-])cc3nc3cc([N+](=O)[O-])ccc23)cc1` (centres unmarked) [INVA3Z-48-2]: in the test on OCI cell line, the IC50 was 8.2 µM. In the case of `CC(=O)Nc1ccc(Nc2c3ccc([N+](=O)[O-])cc3nc3cc([N+](=O)[O-])ccc23)cc1` [INVA3Z-50-2], the “disruption of HDM2/p53 interaction” value at HDM2/p53 is “Identical results were obtained”. The IC50 in the test on OCI cell line is 1.4 µM. At HDMX/p53, the “disruption of HDMX/p53 interaction” value was “Identical results were obtained”. Moreover, the “disruption of P53-HDMX protein interaction” value on P53-HDMX is given as “disrupts”. With `Nc1ccc2cc3ccc(N)c(-c4ccccc4)c3nc2c1-c1ccccc1` [INVA3Z-52-2], in the test on OCI cell line (OCI cell line, read-out: IC 50), the IC50 was found to be 3.4 µM. On the same count and under the same terms, the same measure for `Nc1ccc2cc3ccc(N)c(-c4ccccc4)c3nc2c1I` [INVA3Z-52-3]: 7.8 µM. On the same count and under the same terms, for `[N-]=[N+]=Nc1c2ccccc2nc2ccccc12` [INVA3Z-55-1] the value was 3.2 µM.

In the test with OCI cell line, `O=[N+]([O-])c1ccc2c(Cl)c3cc([N+](=O)[O-])ccc3nc2c1` [INVA3Z-58-1] gave an IC50 of over 15 µM. Consider `Nc1ccc(Nc2c3ccccc3nc3ccccc23)c(N)c1` [INVA3Z-61-2], for which, in the test on OCI cell line (OCI cell line, read-out: IC 50), the IC50 was found to be 4.3 µM.

With `Cc1c([N+](=O)[O-])ccc2c(Cl)c3ccc([N+](=O)[O-])cc3nc12` [INVA3Z-63-1], the IC50 in the test on OCI cell line was over 15 µM. Same read-out and setting: the same measure for `Cc1c([N+](=O)[O-])ccc2c(Nc3ccc(N)cc3)c3ccc([N+](=O)[O-])cc3nc12` [INVA3Z-63-2]: over 15 µM; for `Cc1ccc2nc3cc([N+](=O)[O-])ccc3c(Nc3ccc(N)cc3)c2c1[N+](=O)[O-]` [INVA3Z-65-2]: 11.5 µM; for `Nc1ccc(Nc2c3ccc([N+](=O)[O-])cc3nc3cc([N+](=O)[O-])ccc23)cc1N` [INVA3Z-66-1]: over 15 µM. Turning to `Nc1ccn([C@@H]2O[C@H](CO)[C@@H](O)[C@@H]2O)c(=O)n1` [cytarabine, reference compound], the “efficacy in this model system” value in the test with primary human AML cells (standard AML therapeutic) was “does not demonstrate efficacy”. On to `COc1ccc(C2=N[C@@H](c3ccc(Cl)cc3)[C@@H](c3ccc(Cl)cc3)N2C(=O)N2CCNC(=O)C2)c(OC(C)C)c1` [nutlin-3], for which, in [7], the “sensitivity to cell killing versus parental cells” value is “reduced activity”.

The values are drawn from patent US10183912B2, “HDMX inhibitors and their use for cancer treatment” (priority 2014, dated 2019).
